From PubChem BioAssay (NCI)
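Results reflect a 48-hour exposure of cells in 96-well plates to compound at five concentrations. Abbreviation: GI50, concentration required for 50% inhibition of growth. TGI: total growth inhibition.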

Assays:
Assay in all cases: DTP human tumour cell line panel, 48 h
786-0 renal = system: 786-0 renal
A498 renal = system: A498 renal
A549 NSCLC = system: A549 NSCLC
ACHN renal = system: ACHN renal
BT-549 breast = system: BT-549 breast
CAKI-1 renal = system: CAKI-1 renal
CCRF-CEM leukemia = system: CCRF-CEM leukemia
COLO 205 colon = system: COLO 205 colon
EKVX NSCLC = system: EKVX NSCLC
HCC-2998 colon = system: HCC-2998 colon
HCT-116 colon = system: HCT-116 colon
HCT-15 colon = system: HCT-15 colon
HOP-62 NSCLC = system: HOP-62 NSCLC
HS 578T breast = system: HS 578T breast
HT29 colon = system: HT29 colon
K-562 leukemia = system: K-562 leukemia
KM12 colon = system: KM12 colon
LOX IMVI melanoma = system: LOX IMVI melanoma
M14 melanoma = system: M14 melanoma
MCF7 breast = system: MCF7 breast
MDA-MB-231 breast = system: MDA-MB-231 breast
MDA-MB-435 = system: MDA-MB-435
NCI-H226 lung = system: NCI-H226 lung
NCI-H23 lung = system: NCI-H23 lung
NCI-H460 lung = system: NCI-H460 lung
NCI-H522 lung = system: NCI-H522 lung
NCI/ADR-RES ovarian = system: NCI/ADR-RES ovarian
OVCAR-4 ovarian = system: OVCAR-4 ovarian
OVCAR-5 ovarian = system: OVCAR-5 ovarian
OVCAR-8 ovarian = system: OVCAR-8 ovarian
PC-3 prostate = system: PC-3 prostate
RPMI-8226 leukemia = system: RPMI-8226 leukemia
RXF 393 renal = system: RXF 393 renal
SF-268 CNS = system: SF-268 CNS
SK-MEL-2 melanoma = system: SK-MEL-2 melanoma
SK-MEL-28 melanoma = system: SK-MEL-28 melanoma
SK-MEL-5 melanoma = system: SK-MEL-5 melanoma
SK-OV-3 ovarian = system: SK-OV-3 ovarian
SN12C renal = system: SN12C renal
SNB-19 CNS = system: SNB-19 CNS
SNB-75 CNS = system: SNB-75 CNS
SW-620 colon = system: SW-620 colon
T-47D breast = system: T-47D breast
TK-10 renal = system: TK-10 renal
U251 CNS = system: U251 CNS
UACC-62 melanoma = system: UACC-62 melanoma
UO-31 renal = system: UO-31 renal

C#Cc1nc(/C=C\CCCCCCC(=O)NO)cs1
GI50 (786-0 renal): 0.376 µM
TGI (786-0 renal): 12.6 µM
GI50 (A498 renal): 1.68 µM
TGI (A498 renal): 3.3 µM
GI50 (A549 NSCLC): 2.94 µM
TGI (A549 NSCLC): 11.4 µM
GI50 (ACHN renal): 2.33 µM
TGI (ACHN renal): 6.46 µM
GI50 (BT-549 breast): 4.53 µM
TGI (BT-549 breast): 42.5 µM
GI50 (CAKI-1 renal): 1.82 µM
TGI (CAKI-1 renal): 4.27 µM
GI50 (CCRF-CEM leukemia): 0.329 µM
TGI (CCRF-CEM leukemia): 11.6 µM
GI50 (COLO 205 colon): 1.9 µM
TGI (COLO 205 colon): 3.82 µM
GI50 (EKVX NSCLC): 5.23 µM
TGI (EKVX NSCLC): > 100 µM
GI50 (HCC-2998 colon): 5.58 µM
TGI (HCC-2998 colon): 18.1 µM
GI50 (HCT-116 colon): 2.01 µM
TGI (HCT-116 colon): 7.74 µM
GI50 (HCT-15 colon): 3 µM
TGI (HCT-15 colon): 13.4 µM
GI50 (HOP-62 NSCLC): 2.67 µM
TGI (HOP-62 NSCLC): 11.4 µM
GI50 (HS 578T breast): 2 µM
TGI (HS 578T breast): 8.41 µM
GI50 (HT29 colon): 2.6 µM
TGI (HT29 colon): 7.5 µM
GI50 (K-562 leukemia): 2.1 µM
TGI (K-562 leukemia): > 100 µM
GI50 (KM12 colon): 3.25 µM
TGI (KM12 colon): 11.8 µM
TGI (LOX IMVI melanoma): 0.0231 µM
GI50 (M14 melanoma): 3.65 µM
TGI (M14 melanoma): 19.9 µM
GI50 (MCF7 breast): 2.94 µM
TGI (MCF7 breast): > 100 µM
GI50 (MDA-MB-231 breast): 2.59 µM
TGI (MDA-MB-231 breast): 6.25 µM
GI50 (MDA-MB-435): 2.75 µM
TGI (MDA-MB-435): 11.8 µM
GI50 (NCI-H226 lung): 2.81 µM
TGI (NCI-H226 lung): 9.71 µM
GI50 (NCI-H23 lung): 0.964 µM
TGI (NCI-H23 lung): 2.39 µM
GI50 (NCI-H460 lung): 2.72 µM
TGI (NCI-H460 lung): 16.4 µM
GI50 (NCI-H522 lung): 0.177 µM
TGI (NCI-H522 lung): 0.352 µM
GI50 (NCI/ADR-RES ovarian): 0.861 µM
TGI (NCI/ADR-RES ovarian): 5.83 µM
GI50 (OVCAR-4 ovarian): 2.05 µM
TGI (OVCAR-4 ovarian): 5.77 µM
GI50 (OVCAR-5 ovarian): 2.63 µM
TGI (OVCAR-5 ovarian): 11.5 µM
GI50 (OVCAR-8 ovarian): 2 µM
TGI (OVCAR-8 ovarian): 8.77 µM
GI50 (PC-3 prostate): 3.41 µM
TGI (PC-3 prostate): 20.1 µM
GI50 (RPMI-8226 leukemia): 1.54 µM
TGI (RPMI-8226 leukemia): 4.96 µM
GI50 (RXF 393 renal): 1.72 µM
TGI (RXF 393 renal): 4.14 µM
GI50 (SF-268 CNS): 2.84 µM
TGI (SF-268 CNS): 7.64 µM
GI50 (SK-MEL-2 melanoma): 2.72 µM
TGI (SK-MEL-2 melanoma): 8.53 µM
GI50 (SK-MEL-28 melanoma): 3.69 µM
TGI (SK-MEL-28 melanoma): 30.1 µM
GI50 (SK-MEL-5 melanoma): 2.38 µM
TGI (SK-MEL-5 melanoma): 6.69 µM
GI50 (SK-OV-3 ovarian): 2.49 µM
TGI (SK-OV-3 ovarian): 7.44 µM
GI50 (SN12C renal): 4.02 µM
TGI (SN12C renal): > 100 µM
GI50 (SNB-19 CNS): 3.99 µM
TGI (SNB-19 CNS): 23 µM
GI50 (SNB-75 CNS): 1.4 µM
TGI (SNB-75 CNS): 4.27 µM
GI50 (SW-620 colon): 1.69 µM
TGI (SW-620 colon): 4.2 µM
GI50 (T-47D breast): 1.62 µM
TGI (T-47D breast): 4.24 µM
GI50 (TK-10 renal): 1.68 µM
TGI (TK-10 renal): 6.36 µM
GI50 (U251 CNS): 1.86 µM
TGI (U251 CNS): 3.96 µM
GI50 (UACC-62 melanoma): 1.35 µM
TGI (UACC-62 melanoma): 3.29 µM
GI50 (UO-31 renal): 0.163 µM
TGI (UO-31 renal): 0.318 µM
